US12630525B2, “Triazinylmethylcycloalkylcarboxylic acid derivative, and pharmaceutical composition and use thereof” (SHANGHAI HAIYAN PHARMACEUTICAL TECHNOLOGY CO., LTD., priority 2021, dated 2026)
One block for each molecule: values may come before it.

Legend:
hP2X2/3 = biological target: T1, hP2X2/3 (Homo sapiens, UniProt P56373+Q9UBL9); assay: FLIPR assay, antagonistic activity against hP2X2/3 receptor (selectivity versus P2X3); assay type: cell-based; settings: Multiple of P2X2/3 inhibitory activity and P2X3 inhibitory activity
T1 construct: host or cells: 1321N1
T1 sequence (P56373 1-397): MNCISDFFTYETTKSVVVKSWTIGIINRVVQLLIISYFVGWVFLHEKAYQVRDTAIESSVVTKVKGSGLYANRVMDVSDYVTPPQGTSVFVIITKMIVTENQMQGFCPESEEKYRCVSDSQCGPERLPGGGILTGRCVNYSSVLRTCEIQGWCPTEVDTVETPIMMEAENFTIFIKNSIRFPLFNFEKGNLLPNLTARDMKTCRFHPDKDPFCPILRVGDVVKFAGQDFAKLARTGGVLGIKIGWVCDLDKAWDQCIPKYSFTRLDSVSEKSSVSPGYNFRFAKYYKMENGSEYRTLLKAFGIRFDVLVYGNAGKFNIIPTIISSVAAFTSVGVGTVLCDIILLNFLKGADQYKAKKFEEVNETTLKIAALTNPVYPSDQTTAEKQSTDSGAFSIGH
T1 sequence (Q9UBL9 1-471): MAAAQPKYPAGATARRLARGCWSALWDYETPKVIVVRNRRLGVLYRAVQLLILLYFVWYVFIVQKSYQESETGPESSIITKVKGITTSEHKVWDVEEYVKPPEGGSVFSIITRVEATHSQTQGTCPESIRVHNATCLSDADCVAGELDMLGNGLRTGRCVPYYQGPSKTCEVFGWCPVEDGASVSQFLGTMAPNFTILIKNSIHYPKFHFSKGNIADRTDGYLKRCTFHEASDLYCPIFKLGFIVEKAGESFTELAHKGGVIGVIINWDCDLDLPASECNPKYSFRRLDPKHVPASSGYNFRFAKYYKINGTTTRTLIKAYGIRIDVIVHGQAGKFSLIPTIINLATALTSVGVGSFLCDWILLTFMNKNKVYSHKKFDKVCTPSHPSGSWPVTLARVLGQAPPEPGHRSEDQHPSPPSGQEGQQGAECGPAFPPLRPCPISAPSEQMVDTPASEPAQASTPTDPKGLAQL
Protocol: (§1) Test Example 1: Screening Compounds for Antagonistic Activity Against hP2X3/hP2X2/3 Receptors by FLIPR Assay
(§2) Cell preparation: Cells 1321N1/hP2X3 and cells 1321N1/hP2X2/3 (supplier: Chempartner) were […] with Versene digestive solution. After centrifugation, the cells were suspended using plate medium (DMEM+[…]) and counted. The cells were adjusted to 3×10^5 cells/mL. Each of the 384-well test plates was covered with 50 μL cells and cultured in a […] incubator at 37° C. for 16 hours to 24 hours.
(§3) Compound preparation: 1. Test sample: test compound at a concentration 180 times the required concentration (54 mM DMSO stock solution) was prepared using DMSO in a 384-well polypropylene microporous plate conforming to Echo standard, 500 nL of which was added to each well of a 384-well compound plate. Then 30 μL of test buffer (1*HIBSS+2 mM CaCl2+20 mM HEPES containing 1.26 mM Ca^2+) was added to each well. The 384-well compound plate was shook for 20 min to 40 min to mix well.
(§4) 2. Agonist: agonist ([…]) at a concentration 3 times the required concentration (the final concentration of 3000 nM is required for both hP2X3 and hP2X2/3 cells) was prepared with the test buffer. 45 μL of agonist was added to each well of the 384-well compound plate.
(§5) Dye incubation: The cell plate was taken out. The supernatant was removed. 30 uL of Dye (FLTPR® Calcium 4 Assay Kit, test buffer diluted) was added to each well. The cells were incubated for 1 hour.
(§6) FLTPR detection: 15 μL of compound was added to each well of the cell plate (FLTPR instrument sampling). After 15 minutes, 22.5 μL of agonist was added to each well. Fluorescence signals (excitation wavelength of 470 nm to 495 nm, emission wavelength of 515 nm to 575 nm) were detected.
(§7) Data processing: the difference between the peak value and the valley value of the signal was taken as the basic data. The highest concentration of positive drug was taken as 100% inhibition rate, and DMSO data was taken as 0% inhibition rate. The inhibition curves of compounds were fitted by log (inhibitor) vs. response—Variable slope on Graphpad prism 6 and the IC50 value was calculated.
(§8) Experimental homogeneity standard: each plate was subjected to ≥12 max values (DMSO action results) and ≥12 min values (highest concentration positive drug action results), and the Z value was calculated. If Z≥0.5, it is considered that the parallel wells are homogenous and the data is reliable. The calculation formula for Z value is as follows: Z=1−3*(SDmax+SDmin)/([…]).

hP2X3 = biological target: T2, hP2X3 (Homo sapiens, UniProt P56373); assay: FLIPR assay, antagonistic activity against hP2X3 receptor; assay type: cell-based; settings: 1321N1/hP2X3 cells, FLIPR Calcium 4, agonist 3000 nM; read-out: P2X3 (IC50/nM)
T2 construct: host or cells: 1321N1
T2 sequence (P56373 1-397): T1 sequence (P56373 1-397)
Protocol: as §1, §2, §3, §4, §5, §6, §7, §8

[1] = Exposure at the effective dose in the rat pain model (basis for safety windows); settings: in vivo
From the text: Calculation Basis for Safety Windows:

[2] = 14-day toxicity test with toxicokinetics in SD rats; assay type: in vivo; settings: for AUC / Cmax: SD, rat, blood, 100 mg/kg
Protocol: Test Example 3: Toxicity Test
There were 16 male and 16 female SD rats with SPF grade. Male SD rats weighed about 240 g and were 6 to 9 weeks old. Female SD rats weighed about 200 g and were 6 to 9 weeks old. All the experimental animals were purchased from Zhejiang Weitonglihua Experimental Animal Technology Co., LTD. After purchase, food and water were supplied in the way of free feeding. The feeding temperature was 20° C. to 26° C. The humidity was 40% to 70%. The number of air changes per hour was ≥15 times, and 100% fresh air was used. Automatic lighting and alternating light and dark every 12 hours were used. Male and female are kept in separate cages, with no more than 5 rats per cage.
Animals in each group were randomly divided according to gender and body weight, and were given the medicament once a day for 14 days according to the dose design in Table 7. Toxicokinetic blood sampling was performed in each dose group 30 min, 1 hr, 4 hr, 7 hr, 10 hr and 24 hr before and after the first and last administration, respectively, to investigate the toxicokinetic process in SD rats of each group.

[3] = tested on: mechanical pain hypersensitivity in the rat CFA inflammatory pain model; assay: Analgesic effect in rat CFA inflammatory pain model (von Frey paw withdrawal threshold); assay type: in vivo, SD rats
Protocol: Test Example 2: Evaluation of Analgesic Effect of Rat CFA Inflammatory Pain Model
Experimental animals: 50 male SD rats with a weight of 230 g to 260 g were used. All the experimental animals were purchased from Beijing Weitonglihua Experimental Animal Technology Co., LTD. After purchase, food and water were supplied in the way of free feeding. The feeding temperature was 20° C. to 25° C. The humidity was 40% to 70%. The animals were kept in separate cages and labeled using the tail labeling method.
An emulsion was obtained by mixing full Freund's adjuvant with saline in equal amount. A certain amount of the emulsion was injected subcutaneously into the rats. The animal was placed in a specially designed multi-unit metal mesh cage for pain detection and allowed to acclimate for 15 minutes. After the animal's grooming and investigation activities were completed and acclimated to the detection environment, a series of calibrated von Frey filaments (0.4, 0.6, 1.0, 1.4, 2, 4, 6, 8, 10, 15) were continuously applied to the back paw until a withdrawal reflex reaction occurred. The tester conducted blind test on the experiment, and the experimental results were expressed as “mean±standard deviation”. The data of each group are analyzed by GraphPad Prism 5 t test, with statistical difference at P<0.05.

[4] = female, female SD rats, 100 mg/kg once a day for 14 days, last administration, read-out: AUC0t Last administration
[5] = female, female SD rats, 100 mg/kg once a day for 14 days, last administration, read-out: Cmax Last administration
[6] = female, female SD rats, 100 mg/kg once a day, first administration, read-out: AUC0t First administration
[7] = female, female SD rats, 100 mg/kg once a day, first administration, read-out: Cmax First administration
[8] = male, male SD rats, 100 mg/kg once a day for 14 days, last administration, read-out: AUC0t Last administration
[9] = male, male SD rats, 100 mg/kg once a day for 14 days, last administration, read-out: Cmax Last administration
[10] = male, male SD rats, 100 mg/kg once a day, first administration, read-out: AUC0t First administration
[11] = male, male SD rats, 100 mg/kg once a day, first administration, read-out: Cmax First administration

Structure (SMILES): C[C@@H](Cn1c(=O)nc(Nc2ccc(Oc3ccccn3)cc2)n(Cc2ccc(Cl)cc2)c1=O)C(=O)O [Compound D1, reference compound]
AUC ([1]; 60 mg/kg): ~1570 µg·h/mL
Cmax ([1]; 60 mg/kg): ~141 µg/mL
AUC [2, 4]: 2150 µg·h/mL
Cmax [2, 5]: 156 µg/mL
AUC [2, 6]: 2420 µg·h/mL
Cmax [2, 7]: 185 µg/mL
AUC [2, 8]: 2540 µg·h/mL
Cmax [2, 9]: 188 µg/mL
AUC [2, 10]: 2770 µg·h/mL
Cmax [2, 11]: 200 µg/mL
effective dose in the rat pain model ([3]; oral): 60 mg/kg

Structure (SMILES): O=C(O)[C@H]1C[C@@H]1Cn1c(=O)[nH]/c(=N\c2ccc(Oc3ccc(F)cn3)cc2)n(Cc2ccc(Cl)cc2)c1=O [Compound H5-P1, (1S,2S)-2-((3-(4-chlorobenzyl)-4-((4-((5-fluoropyridin-2-yl)oxy)phenyl)imino)-2,6-dioxo-1,3,5-triazin-1-yl)methyl)cyclopropan-1-carboxylic acid]
Selectivity multiple (hP2X2/3): 590
AUC ([1]; 30 mg/kg): ~249 µg·h/mL
Cmax ([1]; 30 mg/kg): ~18.4 µg/mL
IC50 (hP2X3): 23 nM
AUC [2, 4]: 1740 µg·h/mL
Cmax [2, 5]: 135 µg/mL
AUC [2, 6]: 1420 µg·h/mL
Cmax [2, 7]: 112 µg/mL
safety window (in words) ([2]; from the data in Table 8): high
AUC [2, 8]: 2390 µg·h/mL
Cmax [2, 9]: 162 µg/mL
AUC [2, 10]: 1460 µg·h/mL
Cmax [2, 11]: 101 µg/mL
analgesic effect 4 hours after administration ([3]; 60 mg/kg oral, 4 hours after administration): good analgesic effect
mechanical pain hypersensitivity (paw withdrawal threshold) ([3]; rat CFA model, oral, 30 and 60 mg/kg, FIG. 2 and FIG. 3): significantly inhibits
effective dose in the rat pain model ([3]; oral): 30 mg/kg

Structure (SMILES): O=C(O)[C@@H]1C[C@H]1Cn1c(=O)[nH]c(=Nc2ccc(Oc3ccc(F)cn3)cc2)n(Cc2ccc(Cl)cc2)c1=O [Compound H5-P2, (1R,2R)-2-((3-(4-chlorobenzyl)-4-((4-((5-fluoropyridin-2-yl)oxy)phenyl)imino)-2,6-dioxo-1,3,5-triazin-1-yl)methyl)cyclopropan-1-carboxylic acid]
Selectivity multiple (hP2X2/3): 176
IC50 (hP2X3): 106 nM

Now from value to molecule:

Selectivity multiple (hP2X2/3): 27
Structure (SMILES): O=C(O)[C@@H]1C[C@@H]1Cn1c(=O)[nH]/c(=N\c2ccc(Oc3ccccn3)cc2)n(Cc2ccc(Cl)cc2)c1=O (racemic) [Compound H1, (±) cis-2-((3-(4-chlorobenzyl)-2,6-dioxo-4-(4-(pyridin-2-yloxy)phenylimino)-1,3,5-triazin-1-yl)methyl)cyclopropanecarboxylic acid]

Selectivity multiple (hP2X2/3): 151
Structure (SMILES): O=C(O)[C@@H]1C[C@H]1Cn1c(=O)[nH]/c(=N\c2ccc(Oc3ccccn3)cc2)n(Cc2ccc(Cl)cc2)c1=O (racemic) [Compound H2, (±) trans-2-((3-(4-chlorobenzyl)-2,6-dioxo-4-(4-(pyridin-2-yloxy)phenylimino)-1,3,5-triazin-1-yl)methyl)cyclopropanecarboxylic acid]

Selectivity multiple (hP2X2/3): 251
Structure (SMILES): O=C(O)[C@@H]1C[C@H]1Cn1c(=O)[nH]/c(=N\c2ccc(Oc3ccc(F)cn3)cc2)n(Cc2ccc(Cl)cc2)c1=O (racemic) [Compound H5, (±) trans-2-((3-(4-chlorobenzyl)-4-((4-((5-fluoropyridin-2-yl)oxy)phenyl)imino)-2,6-dioxo-1,3,5-triazin-1-yl)methyl)cyclopropan-1-carboxylic acid]

Selectivity multiple (hP2X2/3): 114
IC50 (hP2X3): 73 nM
Structure (SMILES): O=C(O)[C@@H]1C[C@H]1Cn1c(=O)[nH]/c(=N\c2ccc(Oc3cccc(F)n3)cc2)n(Cc2ccc(Cl)cc2)c1=O (racemic) [Compound H7, (±) trans-2-((3-(4-chlorobenzyl)-4-((4-((6-fluoropyridin-2-yl)oxy)phenyl)imino)-2,6-dioxo-1,3,5-triazin-1-yl)methyl)cyclopropan-1-carboxylic acid]

Selectivity multiple (hP2X2/3): 238
IC50 (hP2X3): 148 nM
Structure (SMILES): O=C(O)[C@@H]1C[C@H]1Cn1c(=O)[nH]/c(=N\c2ccc(Oc3ncccc3F)cc2)n(Cc2ccc(Cl)cc2)c1=O (racemic) [Compound H8, (±) trans-2-((3-(4-chlorobenzyl)-4-((4-((3-fluoropyridin-2-yl)oxy)phenyl)imino)-2,6-dioxo-1,3,5-triazin-1-yl)methyl)cyclopropane-1-carboxylic acid]
